Among the data in EP2257297B1, “COMPOUNDS FOR USE IN THE TREATMENT OF ACNE, SEBORRHOEA AND SEBHORROEIC DERMATITIS, OR FOR REDUCING SEBUM SECRETION” (priority 2008, dated 2009) are IC50 values, retold here.

SMILES strings stand for the structures. pIC50: −log10 of the molar value. Some results are limits rather than exact numbers.

For the first assay, the target named is T1, human MC5R (Homo sapiens, UniProt P33032).
T1 construct: purchased Perkin Elmer RBXMC5M400UA
T1 sequence (P33032 whole entry): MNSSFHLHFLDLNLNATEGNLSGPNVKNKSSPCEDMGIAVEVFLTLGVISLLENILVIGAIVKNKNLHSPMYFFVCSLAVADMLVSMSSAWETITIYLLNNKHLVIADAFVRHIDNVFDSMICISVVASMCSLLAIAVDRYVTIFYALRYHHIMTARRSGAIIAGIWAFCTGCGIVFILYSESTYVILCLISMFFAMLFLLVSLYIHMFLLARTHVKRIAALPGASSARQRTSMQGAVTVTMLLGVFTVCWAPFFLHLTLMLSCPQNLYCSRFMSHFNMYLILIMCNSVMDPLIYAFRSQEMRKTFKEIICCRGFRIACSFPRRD
Put plainly: Human MC5R radioligand binding assay ([125I] NDP-MSH displacement, hMC5R membranes).
Details: not given
In outline:
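Bound ligand collected by filtration on PEI-soaked GF/A filters and counted. Data fitted to a single-site competition model with fixed Hill coefficient to give EC50.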
Compound `CCC(CN1CCC(CNC(=O)c2ccc3cc(Cl)ccc3c2)N[C@@H](C2CCN(C(C)C)CC2)C1=O)c1ccccc1` (mixture of isomers) [Compound 564, (S)-6-chloro-N-((3-(1-isopropylpiperidin-4-yl)-2-oxo-1-(2-phenylbutyl)-1,4-diazepan-5-yl)methyl)-2-naphthamide] gave a pIC50 above 7.00.

The assay is the same for the next values; noted with them: hMC5R assay as in Example 102; compounds tested as trifluoroacetate or hydrochloride salts, or as free base.
For the compound `N=C(N)NCCC[C@@H]1N[C@H](CNC(=O)c2ccc3c(c2)OCO3)CCN(CC(c2ccccc2)c2ccccc2)C1=O` [Compound 148, N-(((3S,5S)-1-(2,2-diphenylethyl)-3-(3-guanidinopropyl)-2-oxo-1,4-diazepan-5-yl)methyl)benzo[d][1,3]dioxole-5-carboxamide], the pIC50 was above 6.00.
As for `CC(C)NCC[C@@H]1N[C@H](CCNC(=O)c2ccc(Cl)c(Cl)c2)CCN(CC(c2ccccc2)c2ccccc2)C1=O` [Compound 362, 3,4-dichloro-N-(2-((3S,5R)-1-(2,2-diphenylethyl)-3-(2-(isopropylamino)ethyl)-2-oxo-1,4-diazepan-5-yl)ethyl)benzamide], the pIC50 was above 6.00.
On to `NCC[C@@H]1N[C@H](CNC(=O)c2ccc3ccccc3c2)CCN(Cc2cc(Cl)cc(Cl)c2)C1=O` [Compound 49, (3S,5S)-3-(2-aminoethyl)-5-(2-naphthoylaminomethyl)-1-(3,5-dichlorobenzyl)-1,4-diazepan-2-one], for which the pIC50 was above 6.00.
Still for that read-out and setting: in the case of `Cc1ccc(/C=C/C(=O)NC[C@@H]2CCN(CC(c3ccccc3)c3ccccc3)C(=O)[C@H](CCCN)N2)s1` [Compound 255, (E)-N-(((3S,5S)-3-(3-aminopropyl)-1-(2,2-diphenylethyl)-2-oxo-1,4-diazepan-5-yl)methyl)-3-(5-methylthiophen-2-yl)acrylamide] it was above 6.00; in that of `NC[C@@H]1N[C@H](CNC(=O)/C=C/c2ccc(Cl)cc2)CCN(CC(c2ccccc2)c2ccccc2)C1=O` [Compound 275, (E)-N-(((3S,5S)-3-(aminomethyl)-1-(2,2-diphenylethyl)-2-oxo-1,4-diazepan-5-yl)methyl)-3-(4-chlorophenyl)acrylamide], above 7.00.
As for `CC1=NN(c2ccc(C(=O)NC[C@@H]3CCN(CC(c4ccccc4)c4ccccc4)C(=O)[C@H](CCCN)N3)cc2)C(=O)C1` [Compound 259, N-(((3S,5S)-3-(3-aminopropyl)-1-(2,2-diphenylethyl)-2-oxo-1,4-diazepan-5-yl)methyl)-4-(3-methyl-5-oxo-4,5-dihydro-1H-pyrazol-1-yl)benzamide], the pIC50 was above 6.00.
On the same count and under the same terms, in the case of `CN(C)C(=N)NCCC[C@@H]1N[C@H](CNC(=O)c2ccc3ccccc3c2)CCN(CC(c2ccccc2)c2ccccc2)C1=O` [Compound 216, N-(((3S,5S)-3-(3-(3,3-dimethylguanidino)propyl)-1-(2,2-diphenylethyl)-2-oxo-1,4-diazepan-5-yl)methyl)-2-naphthamide] it was above 7.00; in that of `COc1ccc(/C=C/C(=O)NC[C@@H]2CCN(CC(c3ccccc3)c3ccccc3)C(=O)[C@H](CCCNC(=N)N)N2)cc1` [Compound 187, (E)-N-(((3S,5S)-1-(2,2-diphenylethyl)-3-(3-guanidinopropyl)-2-oxo-1,4-diazepan-5-yl)methyl)-3-(4-methoxyphenyl)acrylamide], above 7.00; in that of `NCCCC[C@@H]1N[C@H](CNC(=O)c2ccc3ccccc3c2)CCN(Cc2ccc3ccccc3c2)C1=O` [Compound 122, N-(((3S,5S)-3-(4-aminobutyl)-1-(naphthalen-2-ylmethyl)-2-oxo-1,4-diazepan-5-yl)methyl)-2-naphthamide], above 6.00.
Consider `N=C(N)NCCC[C@@H]1N[C@H](CNC(=O)/C=C/c2cccc(Cl)c2)CCN(CC(c2ccccc2)c2ccccc2)C1=O` [Compound 177, (E)-3-(3-chlorophenyl)-N-(((3S,5S)-1-(2,2-diphenylethyl)-3-(3-guanidinopropyl)-2-oxo-1,4-diazepan-5-yl)methyl)acrylamide], for which the pIC50 was above 7.00.
Same read-out and setting: in the case of `NCC[C@@H]1N[C@H](CCNC(=O)c2ccccc2)CCN(CC(c2ccccc2)c2ccccc2)C1=O` [Compound 308, N-(2-((3S,5R)-1-(2,2-diphenylethyl)-2-oxo-3-(2-aminoethyl)-1,4-diazepan-5-yl)ethyl)benzamide] it was above 5.00.
Take `NCCCC[C@@H]1N[C@H](CNC(=O)c2cccc3ccccc23)CCN(Cc2ccc3ccccc3c2)C1=O` [Compound 124, N-(((3S,5S)-3-(4-aminobutyl)-1-(naphthalen-2-ylmethyl)-2-oxo-1,4-diazepan-5-yl)methyl)-1-naphthamide]: the pIC50 is above 5.00.
Turning to `COc1ccc2cc(C(=O)NC[C@@H]3CCN(CC(c4ccccc4)c4ccccc4)C(=O)[C@H](CCCNC(=N)N)N3)ccc2c1` [Compound 158, N-(((3S,5S)-1-(2,2-diphenylethyl)-3-(3-guanidinopropyl)-2-oxo-1,4-diazepan-5-yl)methyl)-6-methoxy-2-naphthamide], the pIC50 was above 7.00.
With `CCC(CC)CN1CC[C@@H](CNC(=O)c2ccc(C)c(Cl)c2)N[C@@H](CCN)C1=O` [Compound 354, N-(((3S,5S)-3-(2-aminoethyl)-1-(2-ethylbutyl)-2-oxo-1,4-diazepan-5-yl)methyl)-3-chloro-4-methylbenzamide], the pIC50 was above 5.00.
For the compound `Cc1ccccc1/C=C/C(=O)NC[C@@H]1CCN(CC(c2ccccc2)c2ccccc2)C(=O)[C@H](CCCNC(=N)N)N1` [Compound 195, (E)-N-(((3S,5S)-1-(2,2-diphenylethyl)-3-(3-guanidinopropyl)-2-oxo-1,4-diazepan-5-yl)methyl)-3-o-tolylacrylamide], the pIC50 was above 7.00.
For `NCCCC[C@@H]1N[C@H](CNC(=O)Cc2cccc3ccccc23)CCN(Cc2ccc3ccccc3c2)C1=O` [Compound 125, N-(((3S,5S)-3-(4-aminobutyl)-1-(naphthalen-2-ylmethyl)-2-oxo-1,4-diazepan-5-yl)methyl)-2-(naphthalen-1-yl)acetamide], the pIC50 was above 5.00.
Consider `N=C(N)NCCC[C@@H]1N[C@H](CNC(=O)Cc2ccc3ccccc3c2)CCN(CC(c2ccccc2)c2ccccc2)C1=O` [Compound 110, N-(((3S,5S)-1-(2,2-diphenylethyl)-3-(3-guanidinopropyl)-2-oxo-1,4-diazepan-5-yl)methyl)-2-(naphthalen-2-yl)acetamide], for which the pIC50 was above 6.00.
Consider `CCC(CC)CN1CC[C@@H](CNC(=O)/C=C/c2ccc(Cl)cc2)N[C@@H](CN2CCCCC2)C1=O` [Compound 355, (E)-3-(4-chlorophenyl)-N-(((3S,5S)-1-(2-ethylbutyl)-2-oxo-3-(piperidin-1-ylmethyl)-1,4-diazepan-5-yl)methyl)acrylamide], for which the pIC50 is above 6.00.
In the case of `Cc1ccc(C(=O)NC[C@@H]2CCN(CC(c3ccccc3)c3ccccc3)C(=O)[C@H](CCCN3CCCCC3)N2)cc1C` [Compound 270, N-(((3S,5S)-1-(2,2-diphenylethyl)-2-oxo-3-(3-(piperidin-1-yl)propyl)-1,4-diazepan-5-yl)methyl)-3,4-dimethylbenzamide], the negative-log IC50 (pIC50) was above 7.00.
As to `Cc1ccc(C(=O)NC[C@@H]2CCN(CC(c3ccccc3)c3ccccc3)C(=O)[C@H](CCCNC(=N)N)N2)cc1C` [Compound 144, N-(((3S,5S)-1-(2,2-diphenylethyl)-3-(3-guanidinopropyl)-2-oxo-1,4-diazepan-5-yl)methyl)-3,4-dimethylbenzamide], the negative-log IC50 (pIC50) is above 7.00.
